Measured values: patent US6004967A, “Psoriasis treatment with quinazoline compounds” (priority 1997, dated 1999)
Read-outs that look alike come from different tables or passages of the source.

What was measured:
[1] = tested on: NIH 3T3 C7 cells engineered to express EGF-R (3T3-EGFR); experiment: 3T3 cell growth assay, EGF-R C7 cells (3T3-EGFR); type: cell-based; settings: Mus musculus, NIH3T3, 96 h, read-out: 3T3-EGFR IC50
Method: The efficacy of the above identified compounds in inhibiting or reducing EGF-R stimulated proliferation is measured by the 3T3 cell growth assay. The 3T3 growth assay was carried out as follows:
EGF-RC7 (NIH 3T3 C7 cells engineered to express EGF-R) and NIH 3T3C7 cells (as the control) were used for this assay. NIH3T3C7 cells were seeded at 2500 cells/well, […] in 10% CS+2 mM Glutamine/DMEM, in a 96 well plate; EGF-RC7 cells were seeded at 6000 cells/well, 100 μl/well in 2% FBS+2 mM Glutamine/DMEM, in a 96 well plate. Cells were incubated at 37° C., 5% CO2 overnight to allow for cell attachment to the plate.
A quinazoline compound was added to the cells at day 2. The compound was prepared in the appropriate growth medium (10% CS+2 mM glutamine in DMEM for NIH3T3C7 cells; 2% FBS+2 mM Glutamine in DMEM for EGF-RC7 cells) in a 96 well plate, and serially diluted. A total of 100 μl/well medium of the diluted compounds was added into the cells. The total volume of each well was 200 μl.
After the cells were treated with the compound for 4 days, the cells were washed with PBS and fixed with 200 μl/well ice-cold […] for one hour at 0-5° C.
Remove TCA and rinse wells 5 times with deionized water. Dry plates upside down with paper towels. Stain cells with 0.4% SRB at 100 μl/well for 10 minutes.
Pour off SRB and rinse plate 5 times with 1% acetic acid. Dry plate completely.
Solubilize the dye with 10 mM Tris-base at 100 μl/well for 10 minutes on a shaker.
Read the plate at dual wavelengths at 570 nm and 630 nm on Dynatech Elisa plate reader.

3T3-PDGFR = experiment: cell growth assay, PDGFR expressing cells (3T3-PDGFR), selectivity; type: cell-based; settings: for IC50: 96 h, read-out: 3T3-PDGFR IC50; for PDGFR/EGFR IC50/IC50: ratio 3T3-PDGFR / 3T3-EGFR, 5760 min
[2] = tested on: psoriatic human keratinocytes; experiment: Growth of psoriatic human keratinocytes; type: cell-based
Source text: Cells and Cell Culture. All tumor cell lines were obtained from the American Type Culture Collection (Rockville, Md.), unless otherwise specified. NIH3T3 mouse fibroblasts overexpressing the EGF receptor, IGF-1 receptor, insulin receptor, PDGF-b receptor, or a chimera of the EGF receptor extracellular domain fused to the Her-2 cytoplasmic domain were engineered using retroviral vectors. These cells will be referred to as 3T3-EGFR, 3T3-IGF1R, 3T3-IR, 3T3-PDGF-bR, and 3T3-EGFR/Her-2, respectively. All cell culture media and supplements were purchased from Gibco Life Technologies (Grand Island, N.Y.) unless otherwise specified. […] Cell lines were maintained under standard conditions in culture media recommended by the ATCC, unless otherwise specified. 3T3-EGFR, 3T3-PDGF-bR, and 3T3-EGFR/Her-2 cells were maintained in DMEM containing 10% calf serum (CS) and 2 mM GLN. 3T3-IGF1R and 3T3-IR cells were maintained in DMEM containing 10% FBS and 2 mM GLN. Keratinocytes were obtained from small biopsy specimens of split-thicknessskin from patients with psoriasis and from healthy control donors.
In vitro functional studies. […] Cell lines examined in receptor phosphorylation ELISA were 3T3-EGFR, 3T3-EGFR/Her-2, 3T3-PDGF-bR, 3T3-IGF1R, and 3T3-IR. For analysis of DNA replication (measured as incorporation of BrdU) and cell cycle progression, 3T3-EGFR and 3T3-PDGF-bR cell lines were used. Cell growth studies were carried out on A431 (EGF-R+), BT474 (Her-2+), and C6 (PDGF-bR+) cell lines.

human EGF-R = target: T1, human EGF-R (Homo sapiens, UniProt P00533); experiment: EGF-R whole cell kinase assay (EGF-R-3T3 ELISA); type: cell-based; settings: for IC50: whole cell, EGF-stimulated EGF-R phosphorylation, free base, read-out: EGFR Kinase IC50
T1 construct: expressed in transfected cells; host or cells: NIH3T3 clone C7 (mouse fibroblasts)
Method: The activity of the above identified compounds in inhibiting EGF-stimulatedEGF-R phosphorylation was measured in an ELISA assay.
EGF-R kinase activity (EGF-R-3T3 assay) in whole cells was measured as described below:
Coated plates are good for up to 10 days when stored at 4° C.
On day of use, remove coating buffer and replace with blocking buffer (5% Carnation Instant NonFat Dry Milk in PBS). Incubate the plate, shaking, at room temperature (about 23° C. to 25° C.) for 30 minutes. Just prior to use, remove blocking buffer and wash plate 4 times with TBST buffer.
EGF-R/C7 cell line was used for this assay.
Choose dishes having 80-90% confluence for the experiment. Trypsinize cells and stop reaction by adding 10% CS DMEM medium. Suspend cells in DMEM medium (10% calf serum (CS) DMEM medium) and centrifuge once at 1000 rpm, and once at room temperature for 5 minutes.
Resuspend cells in seeding medium (DMEM, 0.5% bovine serum), and count the cells using trypan blue. Viability above 90% is acceptable. Seed cells in DMEM medium (0.5% bovine serum) at a density of 10,000 cells per well, 100 μl per well, in a 96 well microtiter plate. Incubate seeded cells in 5% CO2 at 37° C. for about 40 hours.
Check seeded cells for contamination using an inverted microscope. Dilute drug stock (10 mg/ml in DMSO) 1:10 in DMEM medium, then transfer 5 μl to a test well for a final drug dilution of 1:200 and a final DMSO concentration of 1%. Control wells receive DMSO alone. Incubate in 5% CO2 at 37° C. for one hour.
Control wells receive DMEM alone. Incubate and shake at room temperature for 5 minutes.
Remove drug, EGF, and DMEM. Wash cells twice with PBS. Transfer HNTG* to cells, 100 μl per well. Place on ice for 5 minutes. Meanwhile, remove blocking buffer from other ELISA plate and wash with TBST as described above.
With a pipette tip securely fitted to a micropipettor, scrape cells from plate and homogenize cell material by repeatedly aspirating and dispensing the HNTG* lysis buffer. Transfer lysate to a coated, blocked, and washed ELISA plate. Incubate and shake at room temperature for one hour.
Remove lysate and wash 4 times with TBST. Transfer freshly diluted anti-phosphotyrosine (anti-Ptyr) antibody to ELISA plate at 100 μl per well. Incubate shaking at room temperature for 30 minutes in the presence of the anti-Ptyr antiserum (1:3000 dilution in TBST).
Remove the anti-Ptyr antibody and wash 4 times with TBST. Transfer the freshly diluted TAGO 30 anti-rabbit IgG antibody (anti-rabbit IgG antibody: 1:3000 dilution in TBST) to the ELISA plate at 100 μl per well. Incubate shaking at room temperature for 30 minutes.
Remove detection antibody and wash 4 times with TBST. Transfer freshly prepared ABTS/H2 O2 solution to ELISA plate, 100 μl per well. Incubate at room temperature for 20 minutes. ABTS/H2 O2 solution: 1.2 μl 30% H2 O2 in 10 ml ABTS stock.
Stop reaction by adding 50 μl 5N H2 SO4 (optional), and determine O.D. at 410 nm.
The maximal phosphotyrosine signal is determined by subtracting the value of the negative controls from the positive controls. The percent inhibition of phosphotyrosine content for extract-containing wells is then calculated after subtraction of the negative controls.

in vivo = settings: single dose, IP, BALB/c female mice; for LD50 at 168 h: mouse, in vivo; for LD50 at 168 h / LD10: 7 days; for deaths: at the dose for LD10/LD50
[3] = Plasma concentration after single IP dose; type: in vivo; settings: mouse, plasma, single dose 50 mg/kg IP, BALB/c nu/nu female mice; for concentration at […]: 15 min; for concentration at 1 h: 60 min
Method: **Single dose (50 mg/kg), IP, in BALB/c, nu/nu, female mice.

T1 sequence (P00533 25-1210): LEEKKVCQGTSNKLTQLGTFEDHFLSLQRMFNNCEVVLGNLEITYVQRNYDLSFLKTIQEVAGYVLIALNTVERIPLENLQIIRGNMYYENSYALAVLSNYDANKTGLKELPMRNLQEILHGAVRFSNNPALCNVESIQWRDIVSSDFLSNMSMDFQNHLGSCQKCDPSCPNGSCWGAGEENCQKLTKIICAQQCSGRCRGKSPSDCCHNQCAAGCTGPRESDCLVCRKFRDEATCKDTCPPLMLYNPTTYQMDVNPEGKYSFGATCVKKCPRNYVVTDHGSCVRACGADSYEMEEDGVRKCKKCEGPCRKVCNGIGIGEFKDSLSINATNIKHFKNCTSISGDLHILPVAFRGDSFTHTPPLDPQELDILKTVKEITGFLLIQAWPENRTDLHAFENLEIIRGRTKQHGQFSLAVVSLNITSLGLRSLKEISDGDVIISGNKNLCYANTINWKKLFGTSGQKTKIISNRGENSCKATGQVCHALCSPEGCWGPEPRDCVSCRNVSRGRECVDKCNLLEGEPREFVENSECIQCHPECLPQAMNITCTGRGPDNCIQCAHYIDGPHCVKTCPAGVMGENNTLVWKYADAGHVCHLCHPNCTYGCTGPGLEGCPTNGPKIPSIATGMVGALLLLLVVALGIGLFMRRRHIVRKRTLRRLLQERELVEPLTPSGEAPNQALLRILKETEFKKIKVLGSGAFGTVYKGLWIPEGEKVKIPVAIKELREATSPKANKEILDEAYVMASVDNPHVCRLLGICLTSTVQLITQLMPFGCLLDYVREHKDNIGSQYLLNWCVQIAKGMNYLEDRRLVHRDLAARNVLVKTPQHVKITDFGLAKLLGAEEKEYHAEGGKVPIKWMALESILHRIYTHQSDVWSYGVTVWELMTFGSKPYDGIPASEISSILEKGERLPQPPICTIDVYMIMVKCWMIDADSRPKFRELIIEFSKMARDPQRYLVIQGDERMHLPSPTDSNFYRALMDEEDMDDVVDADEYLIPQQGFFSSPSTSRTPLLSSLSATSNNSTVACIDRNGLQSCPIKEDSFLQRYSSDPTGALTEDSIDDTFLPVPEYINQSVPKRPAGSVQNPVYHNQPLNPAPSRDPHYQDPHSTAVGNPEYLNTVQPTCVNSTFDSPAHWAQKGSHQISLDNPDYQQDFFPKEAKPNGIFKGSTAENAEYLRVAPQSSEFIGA

Row | SMILES | IC50 [1] [µM] | IC50 (3T3-PDGFR) [µM] | inhibition of psoriatic skin cell / keratinocyte proliferation in vitro (in words) [2] | inhibition of EGF-stimulated EGF-R phosphorylation (in words) (human EGF-R) | LD50 at 168 h (in vivo) [mg/kg] | LD10 (in vivo) [mg/kg] | deaths (in vivo) | concentration at 5 min [3] [ng/mL] | concentration at […] [3] [ng/mL] | concentration at 1 h [3] [ng/mL] | IC50 ([1]; cell growth, 4 days, free base) [µM] | IC50 (3T3-PDGFR; cell growth, 4 days, free base) [µM] | PDGFR/EGFR IC50/IC50 (3T3-PDGFR) | IC50 (human EGF-R) [µM] | LD40 (in vivo; printed in LD10 and LD50 columns) [mg/kg]
1 | COc1cc2ncnc(Nc3cccc(Cl)c3)c2cc1OC [A2, 4-(3-Chlorophenylamino)-6,7-dimethoxyquinazoline] | 0.11 | 18 | capable of inhibiting | able to inhibit | > 200 | > 200 | no | 11500 ± 4000 | 6500 ± 1300 | 3700 ± 500 |  |  |  |  | 
2 | COc1cc2ncnc(Nc3cccc(C(F)(F)F)c3)c2cc1OC [A4, 4-[3-(trifluoromethyl)phenylamino]-6,7-dimethoxyquinazoline] |  |  | capable of inhibiting | able to inhibit |  |  |  | 13300 ± 1500 | 12700 ± 3000 | 3900 | 0.4 | 28 | 70 | < 0.006 | 400
3 | Cc1ccc2ncnc(Nc3cccc(C(F)(F)F)c3)c2c1 [A6, 4-[3-(trifluoromethyl)phenylamino]-6-methylquinazoline] |  |  | capable of inhibiting | able to inhibit | > 400 | > 400 | no | 4450 ± 1380 | 2010 ± 530 | 540 ± 200 | 6 | 30 | 5 | 0.9 | 
4 | Cc1ccc2ncnc(Nc3cccc(Cl)c3)c2c1 [A3, 4-(3-Chlorophenylamino)-6-methylquinazoline] |  |  | capable of inhibiting | able to inhibit | > 400 |  |  | 7870 ± 980 | 3430 ± 820 | 1340 ± 110 | 2 | 10 | 5 | 0.058 | 
5 | COc1cc2ncnc(Nc3cccc(C#N)c3)c2cc1OC [A5, 4-(3-Cyanophenylamino)-6,7-dimethoxyquinazoline] |  |  | capable of inhibiting | able to inhibit | > 153 | > 153 | no | 950 ± 420 | 650 ± 190 | 130 ± 60 | 1.5 | > 100 | 67 | 0.2 | 
